The text below walks through data of patent US20150352108A1, “AMINO-PYRIMIDINE COMPOUNDS AS INHIBITORS OF TBK1 AND/OR IKK EPSILON” (Alzheimer's Institute of America, priority 2009, published 2015).

Usually IC50 stands for the concentration at which inhibition is half-maximal.

One assay deals with T1, IKKε (Homo sapiens, UniProt Q14164).
T1 construct: His-tag; made in house; host or cells: Sf9 insect cells
T1 sequence (Q14164 1-716): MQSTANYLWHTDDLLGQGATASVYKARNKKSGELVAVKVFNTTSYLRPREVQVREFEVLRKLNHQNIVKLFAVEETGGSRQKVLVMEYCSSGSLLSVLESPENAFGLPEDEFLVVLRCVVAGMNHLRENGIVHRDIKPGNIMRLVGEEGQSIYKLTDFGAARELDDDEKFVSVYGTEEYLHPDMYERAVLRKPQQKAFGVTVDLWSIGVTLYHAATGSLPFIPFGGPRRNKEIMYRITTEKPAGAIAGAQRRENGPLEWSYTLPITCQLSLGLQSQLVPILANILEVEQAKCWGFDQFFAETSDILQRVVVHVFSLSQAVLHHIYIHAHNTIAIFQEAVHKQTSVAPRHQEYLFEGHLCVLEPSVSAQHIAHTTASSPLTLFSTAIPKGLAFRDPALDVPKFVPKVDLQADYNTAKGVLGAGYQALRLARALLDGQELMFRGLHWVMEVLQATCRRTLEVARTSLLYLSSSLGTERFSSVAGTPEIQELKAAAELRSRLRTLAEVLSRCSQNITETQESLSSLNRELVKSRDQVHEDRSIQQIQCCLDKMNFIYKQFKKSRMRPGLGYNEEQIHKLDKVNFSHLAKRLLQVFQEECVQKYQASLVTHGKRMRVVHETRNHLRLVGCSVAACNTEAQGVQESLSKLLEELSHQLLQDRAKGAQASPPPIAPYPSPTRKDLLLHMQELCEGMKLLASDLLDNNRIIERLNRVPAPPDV
In words: In-vitro IKKε kinase assay ([γ33]ATP filter-plate). Format: biochemical. The following applies: text bins; read-out: IC50 for inhibition of the kinase activity of IKKε. In outline:
(§1)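 His-tagged Sf9-expressed kinases at 0.1 or 0.02 μg/ml (TBK1) and 0.1 or 0.015 μg/ml (IKKε) for normal and sensitized formats, with myelin basic protein or casein substrate. ATP was at 2×Km (60 μM TBK1, 32 μM IKKε) plus 0.3 μCi [γ33]ATP. Reactions ran 30-45 min, were captured on P-81 filters, and counts were normalized to DMSO.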

Another assay addresses T2, TBK1 (Homo sapiens, UniProt Q9UHD2).
T2 construct: His-tag; made in house; host or cells: Sf9 insect cells
T2 sequence (Q9UHD2 1-729): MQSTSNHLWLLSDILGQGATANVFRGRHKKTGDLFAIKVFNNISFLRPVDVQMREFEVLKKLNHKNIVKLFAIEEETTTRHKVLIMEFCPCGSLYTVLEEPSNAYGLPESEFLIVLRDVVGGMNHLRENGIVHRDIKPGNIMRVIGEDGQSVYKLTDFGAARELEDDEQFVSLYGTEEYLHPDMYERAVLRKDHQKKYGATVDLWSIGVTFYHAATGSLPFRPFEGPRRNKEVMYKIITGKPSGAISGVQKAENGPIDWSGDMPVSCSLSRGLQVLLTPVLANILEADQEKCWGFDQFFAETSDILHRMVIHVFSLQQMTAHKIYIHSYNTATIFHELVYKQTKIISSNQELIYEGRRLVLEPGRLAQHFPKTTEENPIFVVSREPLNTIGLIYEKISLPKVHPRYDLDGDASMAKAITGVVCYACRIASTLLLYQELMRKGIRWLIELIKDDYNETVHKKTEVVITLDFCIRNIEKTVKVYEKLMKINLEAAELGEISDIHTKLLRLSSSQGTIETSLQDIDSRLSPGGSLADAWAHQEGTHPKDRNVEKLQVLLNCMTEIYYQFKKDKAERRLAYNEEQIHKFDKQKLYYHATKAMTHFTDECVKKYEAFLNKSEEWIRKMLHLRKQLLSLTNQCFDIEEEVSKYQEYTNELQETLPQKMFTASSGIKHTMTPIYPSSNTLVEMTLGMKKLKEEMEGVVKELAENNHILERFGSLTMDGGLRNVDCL
In words: In-vitro TBK1 kinase assay ([γ33]ATP filter-plate). Format: biochemical. To be noted: text bins; read-out: IC50 for inhibition of the kinase activity of TBK1. In outline:
as §1

Take `CS(=O)(=O)N1CCC(Nc2ccc(Nc3nccc(-c4ccc(OC5CCOCC5)c(C#N)c4)n3)cc2)CC1` [Example 171, 5-{2-[(4-{[1-(methylsulfonyl)piperidin-4-yl]amino}phenyl)amino]pyrimidin-4-yl}-2-(tetrahydro-2H-pyran-4-yloxy)benzonitrile]: the figures for the IC50 at IKKε and at TBK1 were less than 5 nM and less than 10 nM, respectively.

For `N#Cc1cc(-c2ccnc(Nc3ccc4scnc4c3)n2)ccc1OC1CCOCC1` [Example 15, 5-[2-(1,3-benzothiazol-5-ylamino)pyrimidin-4-yl]-2-(tetrahydro-2H-pyran-4-yloxy)benzonitrile], the IC50 at IKKε was less than 5 nM; on TBK1, less than 10 nM.

With `N#Cc1cc(-c2ccnc(Nc3ccc(N4CCOCC4)cc3)n2)ccc1OC1CCN(C=O)C1` (centres unmarked) [Example 187, 2-[(1-formylpyrrolidin-3-yl)oxy]-5-(2-{[4-(morpholin-4-yl)phenyl]amino}pyrimidin-4-yl)benzonitrile], the IC50 is 5 to 50 nM at IKKε and less than 10 nM at TBK1.

In the case of `CN(C)C(=O)CN(C)c1ccc(Nc2nccc(-c3ccc(OC4CCOCC4)c(C#N)c3)n2)cc1` [Example 82, N~2~-[4-({4-[3-cyano-4-(tetrahydro-2H-pyran-4-yloxy)phenyl]pyrimidin-2-yl}amino)phenyl]-N,N,N~2~- trimethylglycinamide], the figures for the IC50 at IKKε and on TBK1 were less than 5 nM and less than 10 nM, respectively.

As to `N#Cc1cc(-c2ccnc(Nc3ccc(N4CCOCC4)c(F)c3)n2)ccc1OC1CCOCC1` [Example 24, 5-(2-{[3-fluoro-4-(morpholin-4-yl)phenyl]amino}pyrimidin-4-yl)-2-(tetrahydro-2H-pyran-4-yloxy)benzonitrile], the IC50 was less than 5 nM on IKKε and less than 10 nM on TBK1.

Turning to `COc1cc(Nc2nccc(-c3ccc(O)c(C#N)c3)n2)ccc1N1CCNC(=O)C1` [compound 326, 2-Hydroxy-5-(2-{[3-methoxy-4-(3-oxopiperazin-1-yl)phenyl]amino}pyrimidin-4-yl)benzonitrile], the values for the IC50 at IKKε and at TBK1 were less than 5 nM and less than 10 nM, respectively.

On to `N#Cc1cccc(-c2ccnc(Nc3ccc(N)cc3)n2)c1` [Example 55, 3-{2-[(4-Aminophenyl)amino]pyrimidin-4-yl}benzonitrile], for which the IC50 was in the range of 50 to 500 nM on IKKε and 100 to 500 nM on TBK1.

In the case of `COc1cc(NC(=O)N2CC[C@@H](O)C2)cc(Nc2nccc(-c3ccc(OC)c(C#N)c3)n2)c1` [compound 378, (3R)-N-(3-{[4-(3-Cyano-4-methoxyphenyl)pyrimidin-2-yl]amino}-5-methoxyphenyl)-3-hydroxypyrrolidine-1-carboxamide], the IC50 on IKKε lay in the range of 5 to 50 nM; on TBK1 it was 10 to 100 nM.

Regarding `COc1ccc(-c2ccnc(Nc3ccc(N4CCOCC4)c(Cl)c3)n2)cc1C#N` [Example 98], the half-maximal inhibitory concentration (IC50) on IKKε was less than 5 nM; on TBK1 it was less than 10 nM.

Consider `N#Cc1cc(-c2ccnc(Nc3ccc(N)cc3)n2)ccc1OC1CCOCC1` [Example 184, 5-{2-[(4-Aminophenyl)amino]pyrimidin-4-yl}-2-(tetrahydro-2H-pyran-4-yloxy)benzonitrile], for which the IC50 on IKKε was less than 5 nM; on TBK1 it was less than 10 nM.

In the case of `COc1cc(Nc2nccc(-c3ccc(OCCO)c(C#N)c3)n2)ccc1N1CCNC(=O)C1` [compound 296, 2-(2-Hydroxyethoxy)-5-(2-{[3-methoxy-4-(3-oxopiperazin-1-yl)phenyl]amino}pyrimidin-4-yl)benzonitrile], the IC50 on IKKε is 5 to 50 nM; at TBK1, less than 10 nM.

With `N#Cc1cc(-c2ccnc(Nc3ccc(N4CCOCC4)cc3)n2)ccc1NC(=O)C1CCC1` [compound 416, N-[2-cyano-4-(2-{[4-(morpholin-4-yl)phenyl]amino}pyrimidin-4-yl)phenyl] cyclobutane-carboxamide], the IC50 at IKKε lay within 5 to 50 nM; at TBK1, 10 to 100 nM.

Consider `N#Cc1cc(-c2ccnc(Nc3ccc4c(c3)OCO4)n2)ccc1OC1CCOCC1` [Example 23, 5-[2-(1,3-benzodioxol-5-ylamino)pyrimidin-4-yl]-2-(tetrahydro-2H-pyran-4-yloxy)benzonitrile], for which the IC50 on IKKε was 5 to 50 nM; on TBK1, less than 10 nM.

`N#Cc1cc(-c2ccnc(Nc3ccc4ncsc4c3)n2)ccc1OC1CCOCC1` [Example 16, 5-[2-(1,3-benzothiazol-6-ylamino)pyrimidin-4-yl]-2-(tetrahydro-2H-pyran-4-yloxy)benzonitrile]: the IC50 on IKKε is less than 5 nM; at TBK1, less than 10 nM.

As to `CCOc1cccc(Nc2nccc(-c3cccc(C#N)c3)n2)c1` [Example 276, 3-{2-[(3-Ethoxyphenyl)amino]pyrimidin-4-yl}benzonitrile], the IC50 at IKKε fell in the range of 50 to 500 nM; at TBK1, 100 to 500 nM.

On to `CN1CCN(c2ccc(Nc3nccc(-c4ccc(OC5CCN(C(=O)CO)C5)c(C#N)c4)n3)cc2)CC1` (centres unmarked) [Example 254, 2-{[1-(hydroxyacetyl)pyrrolidin-3-yl]oxy}-5-(2-{[4-(4-methylpiperazin-1-yl)phenyl]amino}pyrimidin-4-yl)benzonitrile], for which the figures for the IC50 at IKKε and at TBK1 were 5 to 50 nM and less than 10 nM, respectively.

Turning to `COC(=O)c1ccc(Nc2nccc(-c3ccc(OC4CCOCC4)c(C#N)c3)n2)cc1OC` [Example 235, methyl 4-({4-[3-cyano-4-(tetrahydro-2H-pyran-4-yloxy)phenyl]pyrimidin-2-yl}amino)-2-methoxybenzoate], the IC50 on IKKε is less than 5 nM; at TBK1, less than 10 nM.

For the compound `COc1ccc(Nc2nc(-c3ccc(OC4CCOCC4)c(C#N)c3)c3nc[nH]c3n2)cc1OC` [compound 532, 5-{2-[(3,4-Dimethoxyphenyl)amino]-3H-purin-6-yl}-2-(tetrahydro-2H-pyran-4-yloxy)benzonitrile], the IC50 on IKKε is 5 to 50 nM; on TBK1, 10 to 100 nM.

For the compound `CC(C)C(=O)Nc1ccc(-c2ccnc(Nc3cccc(CC(=O)N4CCOCC4)c3)n2)cc1C#N` [compound 421, N-{2-cyano-4-[2-({3-[2-(morpholin-4-yl)-2-oxoethyl]phenyl}amino)pyrimidin-4-yl]phenyl}-2-methylpropanamide], the IC50 was 5 to 50 nM on IKKε and 10 to 100 nM at TBK1.

`COc1ccc(-c2ccnc(Nc3ccc(S(=O)(=O)NCCCN(C)C)c(OC)c3)n2)cc1C#N` [compound 375, 4-{[4-(3-Cyano-4-methoxyphenyl)pyrimidin-2-yl]amino}-N-[3-(dimethylamino)propyl]-2-methoxybenzene-sulfonamide]: the IC50 was 5 to 50 nM on IKKε and 10 to 100 nM on TBK1.

On to `COc1cc(Nc2nccc(-c3ccc(OC4CCN(C(=O)[C@H](C)O)CC4)c(C#N)c3)n2)ccc1OCCOCCN` [Example 105, 5-[2-({4-[2-(2-aminoethoxy)ethoxy]-3-methoxyphenyl}amino)pyrimidin-4-yl]-2-({1-[(2S)-2-hydroxypropanoyl]piperidin-4-yl}oxy)benzonitrile], for which the IC50 at IKKε is 5 to 50 nM; on TBK1, 10 to 100 nM.

Turning to `N#Cc1cc(-c2ccnc(Nc3ccc(N4CCOCC4)cc3)n2)ccc1NS(=O)(=O)CC(F)(F)F` [Example 243, N-[2-cyano-4-(2-{[4-(morpholin-4-yl)phenyl]amino}pyrimidin-4-yl)phenyl]-2,2,2-trifluoroethane-sulfonamide], the IC50 on IKKε fell in the range of 5 to 50 nM; on TBK1, 10 to 100 nM.
